Data published in PMC10641921, “Optimization of mTOR Inhibitors Using Property-Based Drug Design and Free–Wilson Analysis for Improved In Vivo Efficacy” (ACS Medicinal Chemistry Letters, 2023).
Converted amounts (≈) assume the structure as drawn. Where two headings read alike, the source gives them in different places.

Assays:
[1] = tested on: PI3Kα; assay: PI3Kα enzyme selectivity (PI3Kα IC50 over mTOR IC50); format: biochemical; details: ratio of PI3Kα enzyme IC50 over mTOR enzyme IC50
[2] = tested on: pAKT-S473 in PC-3 cells (TORC2); assay: Cellular p-AKT (ser473) AlphaScreen assay in PC-3 cells (TORC2 activity); format: cell-based, human; details: for IC50: read-out: pAKT S473 Cell IC50
Protocol: The target product profile for 1 and the next-generation analogs described here was for a dual inhibitor against both TORC1 and TORC2.
FRAP1 (mTOR) recombinant protein and GFP-4E-BP1 were purchased from Invitrogen (Carlsbad, CA, US).
The kinase activity assay was conducted in 50 mM Hepes buffer containing 10 mM MgCl2, 0.01% Brij, 0.2 mM EDTA, 2 mM DTT and 1% DMSO (after compound addition) at pH 7.3.
The IC50 value for each compound was determined in the presence of compound (various concentrations, from 0 to 10 μM) and a fixed amount of ATP (50 μM, final concentration), substrate GFP-4E-BP1 (400 nM, final concentration). The enzymatic reaction was initiated by adding FRAP1 (mTOR) (2 nM, final concentration). The assay was conducted at room temperature (~22 °C). After 30 min, the enzymatic reaction was stopped using Tb-anti-p4E-BP1 (2 nM final concentration, Invitrogen) and EDTA (20 mM final concentration, Sigma) in TR-FRET dilution buffer provided by Invitrogen. All the reagents were dispensed using a Multidrop Combi reagent dispenser (ThermoFisher Scientific, Waltham, […]
The release of product was detected using a BMG PHERAstar plate reader (BMG LABTECH, Ortenberg, Germany) and the Lantha Screen module (337 nm excitation wavelength) and measuring the ratio of fluorescence 520/490 nm (emission wavelengths). Experimental data was fitted using Eq. (1):
Vi and Vo are the rates of the enzyme activity in the presence and in the absence of inhibitor; n is the Hill coefficient; I is the free inhibitor concentration; IC 50 is a measure of potency that is equivalent to a […]
Cellular p-AKT (ser473) assay in PC-3 cells
PC-3 cells (PTEN deleted, human prostate cell line) were maintained in F12K media with 10% heat-inactivated fetal bovine serum (FBS) in 37 °C, 5% CO2 incubator. This method describes the procedure […]
from Perkin Elmer (catalog# TGRAS500). On day 1, 50,000 PC-3 cells were plated in 160 µL complete […]
Plates were placed in 37 °C, 5%
CO2 incubator for 24 h. On day 2, all media was removed and replaced with 160 µL starvation media which is F12K media (no FBS) and 0.1% BSA. Plates are placed in 37 °C, 5% CO2 incubator for 16 h. On day 3, compounds were both solubilized and serially diluted in DMSO and added to a secondary plate containing starvation media. 40 µL of compound/starvation media were added to the 160 µL in cell plate and plates were placed back in the incubator for 1 h. Cells were then activated by adding 22 µL FBS (for a final concentration of 10% FBS) for 10 min in the incubator. Media was removed from the well and cells were lysed in 100 µL SureFire kit lysis buffer and then shake n for 15 min at 900 rpm. AlphaScreen […]
assay was performed according to manufacturer’s instructions. 4 µL of lysate was added to PerkinElmer 96-well Proxiplate then 5 µL of Reaction Buffer plus Activation Buffer. Plates were shaken for 2 h at room temperature. 2 µL of Donor Beads in Dilution Buffer were added to the plate and the plate was shaken for 2 h at room temperature. The plate was read using BMG Labtech PHERAstar using AlphaScreen settings. Each analog was run in duplicate wells and a single IC50 value was calculated in […]

[3] = Rat PK (iv and po); format: in vivo; details: for frac. abs.: estimated from %F, Cl and Qh = 70 mL min^–1 kg^–1; for bioavailability: in vivo, 4 mg/kg; for bioavailability / Cl / Vd: iv 1 mpk; for bioavailability / Cmax: po 4 mpk in 0.5% methylcellulose
Text: This was an early indication that the strategy of increasing potency while lowering lipophilicity would allow us to meet our goal of improving prospects for favorable PK and dose.

[4] = target: T1, CYP2C8 (Homo sapiens, UniProt P10632); assay: CYP inhibition, 2C8; format: in vitro ADME; details: most potently inhibited CYP isoform
T1 sequence (P10632 1-490): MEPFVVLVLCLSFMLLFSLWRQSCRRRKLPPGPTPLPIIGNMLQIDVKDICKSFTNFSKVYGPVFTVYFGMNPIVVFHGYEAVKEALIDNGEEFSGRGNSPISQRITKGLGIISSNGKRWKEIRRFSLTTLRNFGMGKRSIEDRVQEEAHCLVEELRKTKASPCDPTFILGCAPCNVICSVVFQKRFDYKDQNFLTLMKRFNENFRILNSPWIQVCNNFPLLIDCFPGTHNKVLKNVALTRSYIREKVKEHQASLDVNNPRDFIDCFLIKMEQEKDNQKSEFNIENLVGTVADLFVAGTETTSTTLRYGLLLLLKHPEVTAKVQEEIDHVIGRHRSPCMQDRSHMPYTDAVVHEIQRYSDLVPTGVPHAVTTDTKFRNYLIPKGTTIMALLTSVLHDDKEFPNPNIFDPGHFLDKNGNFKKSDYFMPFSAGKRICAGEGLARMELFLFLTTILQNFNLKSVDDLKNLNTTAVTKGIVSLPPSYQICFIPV

[5] = Thermodynamic solubility; format: physicochemical
[6] = tested on: pS6K-T389 in PC-3 cells (TORC1); assay: Cellular pS6K-T389 assay in PC-3 cells (TORC1 activity); format: cell-based; details: Homo sapiens, read-out: pS6K-T389 cell IC50
Text: Our previously reported inhibitor 1 (Figure 1) was potent against mTOR and selective against the off-target PI3Kα.[10]−[12] The target product profile for 1 and the next-generation analogs described here was for a dual inhibitor against both TORC1 and TORC2. […] We undertook a campaign to identify analogs that had improved prospects for a lower efficacious dose while retaining the favorable selectivity and safety profile of compound 1.

[7] = Human liver microsome intrinsic clearance; format: in vitro ADME
[8] = Homo sapiens, PC-3, PC-3 cell line
[9] = Homo sapiens, p-AKT S473, PC-3 cells, mean of N runs, read-out: Cell pEC50 (converted)
[10] = pH 1.2, read-out: Thermodynamic solubility at pH 1.2
[11] = pH 6.8, read-out: Thermodynamic solubility at pH 6.8

C[C@@]12COCCN1c1nc(-c3cccc4[nH]ccc34)ncc1N([C@H]1CC[C@H](O)CC1)C2=O [14c]
PI3Ka sel. [1]: 240 ×
PI3Kα Sel ([1]; Table 2, unit not given): 240
IC50 [2, 8]: 0.01 µM
EC50 [2, 9]: 0.0126 µM
IC50 ([2]; PC-3 cell line): 0.013 µM
frac. abs. [3]: 100%
bioavailability [3]: 94%
Cl [3]: 7.0 mL min^–1 kg^–1
Vd [3]: 1.3 L/kg
Cmax [3]: 1600 nM
IC50 [4]: 21 µM
solubility thermodynamic [5, 10]: 3960 µM (≈ 1720 µg/mL)
solubility thermodynamic [5, 11]: 6 µM (≈ 2.6 µg/mL)
IC50 [6]: 0.006 µM
HLM Clint ([7]; apparent intrinsic clearance, scaled): 6 mL min^–1 kg^–1

CC(F)(F)CN1C(=O)[C@]2(C)COCCN2c2nc(-c3ccc(NC(=O)NC4CC4)cc3)ncc21 [compound 1]
PI3Kα Sel [1]: 54 x
IC50 [2, 8]: 0.07 µM
EC50 ([2]; Homo sapiens, PC-3, Figure 1 profile, read-out: cell EC50): 0.07 µM
EC50 [2, 9]: 0.0708 µM
frac. abs. [3]: 22%
bioavailability [3]: 20%
Cl [3]: 6.9 mL min^–1 kg^–1
Vd [3]: 0.95 L/kg
Cmax [3]: 320 nM
IC50 [4]: 7 µM
solubility thermodynamic [5, 10]: 340 µM (≈ 161 µg/mL)
solubility thermodynamic [5, 11]: 0.6 µM (≈ 0.283 µg/mL)
IC50 [6]: 0.049 µM
CLint scaled ([7]; human, liver microsomes, Figure 1 profile, read-out: HLM Clint): 10 mL/min/kg
